# Data published in ChEMBL document CHEMBL1201862, “PubChem BioAssay data set” (2004).
# Calls of active or inactive are those of the source.
# Experiments:
# [1] = cytotoxicity toward DRD oncogenic fibroblasts, dose response, cell-based, non-viral oncogenic, luminescence (AID 1934); format: functional; settings: Homo sapiens
# [2] = cells; format: functional, cell-based
# [3] = target: T1, Latent membrane protein 1 (Human herpesvirus 4 (strain B95-8), UniProt P03230); experiment: TES1-eGFP NF-kB reporter inhibition versus Tet-On dsRED, dose response, selectivity assay for LMP1 NF-kB inhibitor project, imaging, HEK293T, dual-color eGFP/dsRED, cherry-picks (AID 588398); format: functional, cell-based
# T1 sequence (P03230 whole entry): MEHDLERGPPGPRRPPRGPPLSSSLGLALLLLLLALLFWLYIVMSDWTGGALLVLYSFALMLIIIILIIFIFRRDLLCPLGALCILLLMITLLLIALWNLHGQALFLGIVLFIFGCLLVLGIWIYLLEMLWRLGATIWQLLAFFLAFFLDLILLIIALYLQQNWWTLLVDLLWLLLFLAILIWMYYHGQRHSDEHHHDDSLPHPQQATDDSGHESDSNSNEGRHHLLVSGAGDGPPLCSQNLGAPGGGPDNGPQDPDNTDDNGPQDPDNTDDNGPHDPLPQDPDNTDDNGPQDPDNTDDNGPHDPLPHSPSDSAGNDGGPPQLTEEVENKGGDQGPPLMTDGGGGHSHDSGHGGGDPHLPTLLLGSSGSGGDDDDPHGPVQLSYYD
# [4] = cells; format: functional, cell-based; remark: listed apart in the source
# [5] = system: INS1; experiment: beta cell apoptosis inhibitors, cytokine rescue, dose response, luminescence, retest (AID 449756); format: functional, cell-based; settings: Rattus norvegicus;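 also: cell death triggered by IL-1 beta plus TNF-alpha plus IFN-gamma mixture; protective hits raise ATP signal compared with cytokine alone wells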
# [6] = system: HEK293; experiment: inhibitors of LMP1-driven NF-kB reporter, dose response, cell-based, HEK293, luciferase, cherry-pick (AID 588343); format: functional; settings: Homo sapiens
# [7] = system: BJ; experiment: cytotoxicity toward BJ-TERT fibroblasts, dose response, cell-based, RAS-independent, luminescence (AID 1933); format: functional; settings: Homo sapiens
# [8] = system: BJ; experiment: cells; format: functional, cell-based; settings: Homo sapiens
# [9] = target: Adenosylmethionine-8-amino-7-oxononanoate aminotransferase (Mycobacterium tuberculosis, UniProt P9WQ81); experiment: Mycobacterium tuberculosis BioA enzyme inhibitor Measured in Biochemical System Using Plate Reader - 2163-02_Inhibitor_Dose_CherryPick_Activity.; format: functional, Mycobacterium tuberculosis UT205
# [10] = target: Steroidogenic factor 1 (Homo sapiens, UniProt Q13285); experiment: Counterscreen for inverse agonists of the liver receptor homolog-1 (LRH-1; NR5A2): Luminescence-based cell-based high throughput dose response assay to identify inverse agonists of the Steroidogenic Factor 1 Nuclear Receptor (SF1; NR5A1).; format: functional
# [11] = target: Nuclear receptor subfamily 5 group A member 2 (Homo sapiens, UniProt O00482); format: functional, cell-based;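 also: HEK293T cells transfected with LRH-1 and a StAR promoter luciferase reporter; potency for inhibitors that lower LRH-1 driven reporter light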
# [12] = StAR promoter reporter inhibition counter-screen, dose response, counter-screen for LRH-1 inverse agonist project, cell-based, luminescence, luciferase reporter (AID 651969); format: functional
# [13] = Fluorescence-based cell-based high throughput dose response assay for inhibitors of the interaction of nucleotide-binding oligomerization domain containing 2 (NOD2) and the receptor-interacting serine-threonine kinase 2 (RIPK2).; format: functional; settings: Homo sapiens
# [14] = system: BJ; experiment: cytotoxicity toward BJ-TERT-LT-ST fibroblasts, dose response, cell-based, RAS-independent, luminescence (AID 1935); format: functional; settings: Homo sapiens;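 also: BJ fibroblasts immortalized with TERT plus LT and ST oncogenes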
# [15] = target: T2, Replicative DNA helicase DnaB (Mycobacterium tuberculosis, UniProt P9WMR3); experiment: DnaB intein splicing inhibitors, dose response, biochemical, cell-free fluorescence (AID 449749); format: functional
# T2 sequence (P9WMR3 whole entry): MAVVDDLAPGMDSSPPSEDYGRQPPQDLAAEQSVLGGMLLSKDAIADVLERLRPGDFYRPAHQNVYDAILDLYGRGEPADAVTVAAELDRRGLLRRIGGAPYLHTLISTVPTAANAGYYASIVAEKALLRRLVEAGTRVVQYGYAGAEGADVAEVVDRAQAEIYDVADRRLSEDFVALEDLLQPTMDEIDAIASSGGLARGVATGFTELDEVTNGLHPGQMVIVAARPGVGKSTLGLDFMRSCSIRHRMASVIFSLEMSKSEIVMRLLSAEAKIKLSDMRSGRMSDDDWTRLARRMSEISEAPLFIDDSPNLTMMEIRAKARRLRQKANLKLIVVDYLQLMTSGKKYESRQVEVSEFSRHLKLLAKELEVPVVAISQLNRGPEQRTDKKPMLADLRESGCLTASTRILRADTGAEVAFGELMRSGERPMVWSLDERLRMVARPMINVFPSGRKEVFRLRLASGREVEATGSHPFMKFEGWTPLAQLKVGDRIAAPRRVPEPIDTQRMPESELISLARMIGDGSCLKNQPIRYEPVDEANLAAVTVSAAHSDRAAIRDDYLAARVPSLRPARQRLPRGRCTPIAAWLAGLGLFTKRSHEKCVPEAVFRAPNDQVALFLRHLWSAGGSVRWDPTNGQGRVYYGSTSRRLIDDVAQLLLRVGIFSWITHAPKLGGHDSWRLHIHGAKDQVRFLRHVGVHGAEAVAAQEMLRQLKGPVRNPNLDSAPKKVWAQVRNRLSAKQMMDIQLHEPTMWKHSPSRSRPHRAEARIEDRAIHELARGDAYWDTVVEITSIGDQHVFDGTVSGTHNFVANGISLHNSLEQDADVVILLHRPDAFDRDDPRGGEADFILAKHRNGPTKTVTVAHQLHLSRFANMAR
# [16] = target: Heat shock protein HSP 90-alpha (Homo sapiens, UniProt P07900); format: functional, organism-based
# [17] = system: BJ; experiment: cytotoxicity toward Ras-transformed BJeLR fibroblasts, dose response, cell-based, alamar blue fluorescence, cherrypicked samples (AID 2631); format: functional; settings: Homo sapiens;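 also: confirmatory dose-response assay in RAS-dependent BJ fibroblasts engineered with TERT, LT and ST, with cytotoxicity read by fluorescence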
# [18] = target: T3, Protein RecA (Mycobacterium tuberculosis, UniProt P9WHJ3); experiment: Fluorescence Cell-Free Homogeneous Dose Retest to Identify Inhibitors of RecA-Intein Splicing Activity. [Related pubchem assays (depositor defined):AID2097, AID2223, AID489010, AID492950]; format: functional
# T3 sequence (P9WHJ3 whole entry): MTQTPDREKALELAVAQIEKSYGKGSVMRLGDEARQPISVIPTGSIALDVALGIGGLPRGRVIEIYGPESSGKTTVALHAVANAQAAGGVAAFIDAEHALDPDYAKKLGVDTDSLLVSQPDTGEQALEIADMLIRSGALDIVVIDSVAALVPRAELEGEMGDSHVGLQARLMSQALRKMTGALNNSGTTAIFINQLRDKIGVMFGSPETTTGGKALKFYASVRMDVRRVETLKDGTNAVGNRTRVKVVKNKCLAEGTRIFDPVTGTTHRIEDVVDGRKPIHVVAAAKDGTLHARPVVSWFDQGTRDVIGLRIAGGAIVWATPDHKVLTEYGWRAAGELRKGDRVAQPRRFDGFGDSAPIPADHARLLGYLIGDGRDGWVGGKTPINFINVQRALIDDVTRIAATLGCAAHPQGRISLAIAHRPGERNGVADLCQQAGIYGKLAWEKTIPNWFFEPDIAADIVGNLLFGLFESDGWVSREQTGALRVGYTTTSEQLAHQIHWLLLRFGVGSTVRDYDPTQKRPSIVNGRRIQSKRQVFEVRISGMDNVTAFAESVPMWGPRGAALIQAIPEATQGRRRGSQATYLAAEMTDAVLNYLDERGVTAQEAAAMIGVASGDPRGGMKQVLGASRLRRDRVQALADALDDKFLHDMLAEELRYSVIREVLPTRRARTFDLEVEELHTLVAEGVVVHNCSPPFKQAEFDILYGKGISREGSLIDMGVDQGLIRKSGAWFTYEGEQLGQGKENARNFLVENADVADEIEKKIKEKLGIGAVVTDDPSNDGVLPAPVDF
# Sequence of Steroidogenic factor 1 (Q13285 whole entry): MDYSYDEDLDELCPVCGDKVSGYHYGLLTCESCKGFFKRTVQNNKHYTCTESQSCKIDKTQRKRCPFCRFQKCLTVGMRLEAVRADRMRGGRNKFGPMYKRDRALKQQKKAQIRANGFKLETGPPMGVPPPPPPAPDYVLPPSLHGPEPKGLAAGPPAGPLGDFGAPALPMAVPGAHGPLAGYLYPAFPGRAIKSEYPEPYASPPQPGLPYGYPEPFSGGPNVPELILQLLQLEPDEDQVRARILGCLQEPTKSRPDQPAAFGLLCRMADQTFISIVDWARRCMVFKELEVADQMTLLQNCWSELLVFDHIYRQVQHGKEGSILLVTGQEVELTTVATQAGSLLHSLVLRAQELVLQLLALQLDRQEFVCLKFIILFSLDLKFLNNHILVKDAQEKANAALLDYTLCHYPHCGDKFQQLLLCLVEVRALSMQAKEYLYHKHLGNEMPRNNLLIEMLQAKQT
# Sequence of Nuclear receptor subfamily 5 group A member 2 (O00482 whole entry): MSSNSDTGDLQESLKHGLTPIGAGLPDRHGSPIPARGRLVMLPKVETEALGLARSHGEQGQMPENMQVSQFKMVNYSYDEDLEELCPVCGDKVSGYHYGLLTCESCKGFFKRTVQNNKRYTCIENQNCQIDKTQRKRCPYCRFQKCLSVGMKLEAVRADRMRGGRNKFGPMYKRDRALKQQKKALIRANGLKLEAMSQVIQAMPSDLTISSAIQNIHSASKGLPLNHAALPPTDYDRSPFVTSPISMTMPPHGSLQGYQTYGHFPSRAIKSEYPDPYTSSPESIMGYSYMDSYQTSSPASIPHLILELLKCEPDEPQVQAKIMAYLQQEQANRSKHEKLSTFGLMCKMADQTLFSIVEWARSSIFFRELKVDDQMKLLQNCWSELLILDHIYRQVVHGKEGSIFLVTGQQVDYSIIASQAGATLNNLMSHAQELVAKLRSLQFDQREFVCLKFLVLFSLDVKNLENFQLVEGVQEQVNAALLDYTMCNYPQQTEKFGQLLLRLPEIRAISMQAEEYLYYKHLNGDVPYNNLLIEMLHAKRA
# Sequence of Adenosylmethionine-8-amino-7-oxononanoate aminotransferase (P9WQ81 whole entry): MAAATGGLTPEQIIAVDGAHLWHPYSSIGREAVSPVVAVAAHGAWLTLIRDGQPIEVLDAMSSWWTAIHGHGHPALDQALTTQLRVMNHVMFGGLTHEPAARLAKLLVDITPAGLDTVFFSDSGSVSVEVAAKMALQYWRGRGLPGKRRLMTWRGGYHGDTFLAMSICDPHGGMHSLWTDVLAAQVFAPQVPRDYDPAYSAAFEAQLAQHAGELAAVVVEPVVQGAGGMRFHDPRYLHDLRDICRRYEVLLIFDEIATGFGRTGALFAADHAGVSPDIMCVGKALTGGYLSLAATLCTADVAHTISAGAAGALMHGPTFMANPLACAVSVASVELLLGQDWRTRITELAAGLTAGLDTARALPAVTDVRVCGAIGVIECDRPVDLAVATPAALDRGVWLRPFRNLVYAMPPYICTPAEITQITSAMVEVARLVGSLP
smiles,measurement,setting,value
CCN(CC)c1ccc(/C=N/NC(=O)c2cnccn2)c(O)c1,EC50,[1],2.17 µM (active)
same,EC50,[2],8.38 µM (active)
same,AC50,[3],13.2 µM (active)
same,EC50,[4],40 µM (active)
same,AC50,[5],0.55 µM (active)
same,AC50,[6],5.61 µM (active)
same,EC50,[7],5.61 µM (active)
same,EC50,[8],5.54 µM (active)
O=C(Nc1ccc2c(c1)[C@H]1C[C@@H](CC(=O)N3CCc4ccccc4C3)O[C@@H](CO)[C@H]1O2)c1cccnc1,AC50,[9],10.5 µM (active)
COCCNC(=O)C[C@H]1CC[C@@H]2[C@@H](COc3ccc(NC(=O)Nc4cccc(F)c4)cc3C(=O)N2C)O1,AC50,[9],5.19 µM (active)
Cc1ccc2cccc(OCC(=O)NCCC3=CCCCC3)c2n1,IC50,[10],2.83 µM (active)
same,IC50,[11],4.06 µM (active)
same,IC50,[12],35.8 µM (inactive)
O=C1CSC(=S)N1Cc1ccccc1,AC50,[3],119 µM (active)
same,AC50,[6],2.11 µM (active)
O=[N+]([O-])c1cc(Br)c(Nc2ccccc2)c([N+](=O)[O-])c1,EC50,[1],4.5 µM (active)
same,IC50,[13],2.12 µM (active)
same,EC50,[14],28.3 µM (inconclusive)
same,AC50,[15],5.68 µM (active)
same,AC50,[16],7.5 µM (active)
same,EC50,[17],1.37 µM (active)
same,EC50,[7],5.53 µM (inconclusive)
same,EC50,[18],5.15 µM (active)
same,EC50,[8],2.57 µM (inconclusive)
O=C(CCl)NCCCN(C(=O)C(Cl)Cl)c1ccc([N+](=O)[O-])cc1,IC50,[10],4.97 µM (active)
same,IC50,[11],7.45 µM (active)
same,IC50,[12],18.8 µM (inactive)
